Data: ChEMBL document CHEMBL1201862, “PubChem BioAssay data set” (2004)
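Grown in 96-well plates, cells were treated for 48 hours with each compound at five concentrations. Insufficient inhibition: endpoint recorded as highest concentration tested. GI50 = concentration required for 50% inhibition of growth.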 The source made the active and inactive calls. Cut-off read from the data, not from the text of the source: active = GI50 up to about 1.1 µM and inactive = higher.

Columns and labels:
Assay in all cases: inhibition of tumour cell growth, NCI panel, 48 h
[1] = test system: CCRF-CEM
[2] = test system: OVCAR-5
[3] = test system: BT-549
[4] = test system: MDA-N
[5] = test system: SNB-78
[6] = test system: 786-0
[7] = test system: SW-620
[8] = test system: ACHN
[9] = test system: SR
[10] = test system: KM12
[11] = test system: M14
[12] = test system: SK-MEL-2
[13] = test system: Hs-578T
[14] = test system: COLO 205
[15] = test system: MDA-MB-231
[16] = test system: DMS-114
[17] = test system: A549
[18] = test system: DU-145
[19] = test system: OVCAR-8
[20] = test system: NCI-H23

SMILES | GI50 [1] | GI50 [2] | GI50 [3] | GI50 [4] | GI50 [5] | GI50 [6] | GI50 [7] | GI50 [8] | GI50 [9] | GI50 [10] | GI50 [11] | GI50 [12] | GI50 [13] | GI50 [14] | GI50 [15] | GI50 [16] | GI50 [17] | GI50 [18] | GI50 [19] | GI50 [20]
Nc1ccc(-c2nc3ccccc3s2)cc1 | 14.6 µM (inactive) | 18.7 µM (inactive) | 14.9 µM (inactive) | 19.5 µM (inactive) | 21.6 µM (inactive) | 16.2 µM (inactive) | 20 µM (inactive) | 15.7 µM (inactive) | 18.4 µM (inactive) | 21.4 µM (inactive) | 18.6 µM (inactive) | 25.3 µM (inactive) | 36.1 µM (inactive) | 23.8 µM (inactive) | 17.9 µM (inactive) | 17.7 µM (inactive) | 23 µM (inactive) | 16.4 µM (inactive) | 12.8 µM (inactive) | 18.8 µM (inactive)
Nc1ncnc2c1ncn2C1C=C(CO)C(O)C1O (configuration not stated) | 0.305 µM (active) | 7.5 µM (inactive) | 1.99 µM (inactive) | 3.37 µM (inactive) | 30.9 µM (inactive) | 4.17 µM (inactive) | 2.06 µM (inactive) | 4.48 µM (inactive) | 0.0254 µM (active) | 0.264 µM (active) | 9.57 µM (inactive) | 29.7 µM (inactive) | 83.6 µM (inactive) | 3.32 µM (inactive) | 2.19 µM (inactive) | 1.99 µM (inactive) | 14.9 µM (inactive) | 5.69 µM (inactive) | 3.75 µM (inactive) | 2.83 µM (inactive)
O=C1c2ccccc2C2(O)NC(=S)N(c3ccccc3)C12O (configuration not stated) | > 100 µM (inactive) | > 100 µM (inactive) |  |  | > 100 µM (inactive) | > 100 µM (inactive) | > 100 µM (inactive) |  | > 100 µM (inactive) | > 100 µM (inactive) | > 100 µM (inactive) | > 100 µM (inactive) |  | > 100 µM (inactive) |  | > 100 µM (inactive) | > 100 µM (inactive) |  | > 100 µM (inactive) | > 100 µM (inactive)
CC(=O)c1ccc(NC(=O)/C(=N\NC(N)=O)C(C#N)CC(C)(C)C=O)cc1 (configuration not stated) | > 100 µM (inactive) | > 100 µM (inactive) |  |  | > 100 µM (inactive) |  | > 100 µM (inactive) | > 100 µM (inactive) | > 100 µM (inactive) | > 100 µM (inactive) | > 100 µM (inactive) | > 100 µM (inactive) |  | > 100 µM (inactive) |  | > 100 µM (inactive) | > 100 µM (inactive) |  | > 100 µM (inactive) | > 100 µM (inactive)
Cc1nc(O)nc2c1C(NCCCN(C)C)c1cc(Cl)ccc1N2 (configuration not stated) | 15.1 µM (inactive) |  |  |  | 15.3 µM (inactive) | 14.6 µM (inactive) | 15.2 µM (inactive) | 16.6 µM (inactive) | 4.81 µM (inactive) | 16 µM (inactive) | 9.59 µM (inactive) | 17.4 µM (inactive) |  | 13.2 µM (inactive) |  | 14.7 µM (inactive) | 13.9 µM (inactive) |  | 15.3 µM (inactive) | 17.5 µM (inactive)
